Measured values from the supplement of paper PMC10307832.

Assays:
Experiment in all cases: relative viability (nuclei count vs DMSO), 5 days (fraction); higher = more cells survive
TGX 221 + Vorinostat = compound: CC1=CN2C(=O)C=C(N=C2C(=C1)C(C)NC3=CC=CC=C3)N4CCOCC4 [TGX 221] + O=C(CCCCCCC(=O)Nc1ccccc1)NO [Vorinostat] (partner 1 µM)
Procedure, shortened: (§1)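 Cells from lung cancer lines were seeded into 1536-well plates and, one day later, dosed by pin tool. Treatments were either a single drug or a fixed dose of an anchor drug with five library-drug doses (not always all listed) in √10 steps. After 5 days, nuclei were stained in a one-step fixation (final 0.05% Triton X-100, 1% formaldehyde, 1 ug/ml Hoechst) and counted on 4× images, and relative viability is the treated-to-vehicle nuclei ratio, as the median of duplicate plates.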

[1] = compound: O=C(CCCCCCNC(=O)c1cnc(N(c2ccccc2)c2ccccc2)nc1)NO [Ricolinostat] + O=C(CCCCCCC(=O)Nc1ccccc1)NO [Vorinostat] (partner 1 µM)
Procedure, shortened: as §1

TGX 221 + Decitabine = compound: CC1=CN2C(=O)C=C(N=C2C(=C1)C(C)NC3=CC=CC=C3)N4CCOCC4 [TGX 221] + Nc1ncn([C@H]2C[C@H](O)[C@@H](CO)O2)c(=O)n1 [Decitabine] (partner 2 µM)
Procedure, shortened: as §1

TGX 221 + Crizotinib = compound: CC1=CN2C(=O)C=C(N=C2C(=C1)C(C)NC3=CC=CC=C3)N4CCOCC4 [TGX 221] + C[C@@H](Oc1cc(-c2cnn(C3CCNCC3)c2)cnc1N)c1c(Cl)ccc(F)c1Cl [Crizotinib] (partner 1 µM)
Procedure, shortened: as §1

| Cell Line | relative viability (TGX 221 + Vorinostat; first compound 0.08 µM) | relative viability (TGX 221 + Vorinostat; first compound 0.253 µM) | relative viability (TGX 221 + Vorinostat; first compound 0.8 µM) | relative viability (TGX 221 + Vorinostat; first compound 2.53 µM) | relative viability (TGX 221 + Vorinostat; first compound 8 µM) | relative viability ([1]; first compound 0.08 µM) | relative viability ([1]; first compound 0.253 µM) | relative viability ([1]; first compound 0.8 µM) | relative viability ([1]; first compound 2.53 µM) | relative viability (TGX 221 + Decitabine; first compound 0.08 µM) | relative viability (TGX 221 + Decitabine; first compound 0.253 µM) | relative viability (TGX 221 + Decitabine; first compound 0.8 µM) | relative viability (TGX 221 + Decitabine; first compound 2.53 µM) | relative viability (TGX 221 + Decitabine; first compound 8 µM) | relative viability (TGX 221 + Crizotinib; first compound 0.08 µM) | relative viability (TGX 221 + Crizotinib; first compound 0.253 µM) | relative viability (TGX 221 + Crizotinib; first compound 0.8 µM) | relative viability (TGX 221 + Crizotinib; first compound 2.53 µM) | relative viability (TGX 221 + Crizotinib; first compound 8 µM) |
| --- | --- | --- | --- | --- | --- | --- | --- | --- | --- | --- | --- | --- | --- | --- | --- | --- | --- | --- | --- |
| NCI-H2009 | 0.731 | 0.687 | 0.72 | 0.819 | 0.559 | 0.614 | 0.68 | 0.711 | 0.53 | 0.384 | 0.339 | 0.352 | 0.471 | 0.327 | 0.964 | 0.978 | 1 | 1.03 | 0.773 |
| NCI-H2023 | 0.552 | 0.701 | 0.759 | 0.495 | 0.502 | 0.511 | 0.544 | 0.47 | 0.369 | 0.224 | 0.236 | 0.243 | 0.217 | 0.23 | 0.594 | 0.532 | 0.689 | 0.591 | 0.463 |
| NCI-H2085 | 0.86 | 0.667 | 0.562 | 0.416 | 0.436 |  | 0.751 | 0.731 | 0.631 | 0.59 | 0.524 | 0.548 | 0.414 | 0.451 | 0.804 | 0.878 | 0.915 | 0.806 | 0.505 |
| NCI-H2087 | 0.814 | 0.855 | 0.483 | 0.664 | 0.932 | 0.398 | 0.42 | 0.728 | 0.193 | 0.231 | 0.261 | 0.235 | 0.252 | 0.304 | 1.02 | 1.01 | 0.802 | 0.979 | 1.19 |
